ChEMBL document CHEMBL1250510, “2,3-diarylxanthones as strong scavengers of reactive oxygen and nitrogen species: a structure-activity relationship study” (Bioorg Med Chem, 2010)
The source made the active and inactive calls. The calls are words filed in the database; no cut-off is given here.

Experiments:
Assay type in all cases: functional
[1] = Antioxidant activity assessed as peroxynitrite scavenging activity by spectrophotometry in presence of NaHCO3
[2] = Antioxidant activity assessed as peroxynitrite scavenging activity by spectrophotometry in absence of NaHCO3
[3] = Antioxidant activity assessed as hypocholrous acid scavenging activity by spectrophotometry
[4] = Antioxidant activity assessed as peroxyl radical scavenging activity assessed as trolox equivalent at 1 uM by spectrophotometry
[5] = Antioxidant activity assessed as peroxynitrite scavenging activity at 50 uM by spectrophotometry in absence of NaHCO3
[6] = Antioxidant activity assessed as hydrogen peroxide scavenging activity at 125 uM by spectrophotometry
[7] = Antioxidant activity assessed as singlet oxygen scavenging activity at 100 uM by spectrophotometry
[8] = Antioxidant activity assessed as superoxide radical scavenging activity at 25 uM by spectrophotometry
[9] = Antioxidant activity assessed as peroxynitrite scavenging activity at 50 uM by spectrophotometry in presence of NaHCO3
[10] = Antioxidant activity assessed as nitric oxide scavenging activity at 200 uM by spectrophotometry
[11] = Antioxidant activity assessed as singlet oxygen scavenging activity by spectrophotometry
[12] = Antioxidant activity assessed as hydrogen peroxide scavenging activity at 250 uM by spectrophotometry
[13] = Antioxidant activity assessed as nitric oxide scavenging activity by spectrophotometry
[14] = Antioxidant activity assessed as peroxyl radical scavenging activity assessed as trolox equivalent by spectrophotometry
[15] = Antioxidant activity assessed as superoxide radical scavenging activity by spectrophotometry
[16] = Antioxidant activity assessed as hydrogen peroxide scavenging activity by spectrophotometry
[17] = Antioxidant activity assessed as superoxide radical scavenging activity at 200 uM by spectrophotometry

Row | SMILES | IC50 [1] | IC50 [2] | IC50 [3] | inhibition [12] | IC50 [13] | IC50 [7] | trolox equivalent [14] | IC50 [15] | also measured
1 | O=c1c2ccccc2[se]n1-c1ccccc1 [EBSELEN] | 500 nM | 2010 nM | – | – | – | – | – | – | –
2 | O=C(O)CCCC[C@@H](S)CCS [DIHYDROLIPOIC ACID] | – | – | 2300 nM | – | – | – | – | – | –
3 | O=c1c2ccccc2oc2cc(-c3ccccc3)c(-c3ccccc3)cc12 | – | – | 155000 nM | – | – | – | – | – | inhibition [4]: inactive; inhibition [5]: 48%; inhibition [6]: inactive; inhibition [7]: 27%; inhibition [8]: inactive; inhibition [9]: 29%; inhibition [10]: 39%
4 | O=c1c(O)c(-c2ccc(O)c(O)c2)oc2cc(O)cc(O)c12 [QUERCETIN] | – | – | – | – | – | – | – | – | IC50 [11]: 1800 nM
5 | O=c1c2ccccc2oc2cc(-c3ccc(O)c(O)c3)c(-c3ccc(O)c(O)c3)cc12 | 170 nM | 330 nM | 1200 nM | 17% | 390 nM | 2500 nM | 0.28 | 10400 nM | –
6 | O=c1c2ccccc2oc2cc(-c3ccc(O)cc3)c(-c3ccc(O)c(O)c3)cc12 | 260 nM | 780 nM | 14700 nM | 14% | 420 nM | 3300 nM | 0.88 | 20300 nM | –
7 | C[C@@H]1O[C@@H](OC[C@H]2O[C@@H](Oc3c(-c4ccc(O)c(O)c4)oc4cc(O)cc(O)c4c3=O)[C@H](O)[C@@H](O)[C@@H]2O)[C@H](O)[C@H](O)[C@H]1O [RUTIN] | – | – | – | – | 2530 nM | – | – | – | –
8 | O=C1O[C@H]([C@@H](O)CO)C(O)=C1O [ASCORBIC ACID] | – | – | – | – | – | – | – | – | IC50 [16]: 602000 nM; IC50 [14]: 220 nM
9 | O=c1c2ccccc2oc2cc(-c3ccccc3)c(-c3ccc(O)cc3)cc12 | 1550 nM | 1800 nM | 72100 nM | – | 175000 nM | 80000 nM | 1.05 | – | inhibition [17]: inactive; inhibition [6]: inactive
10 | O=S(=O)(O)c1cc(O)c(O)c(S(=O)(=O)O)c1 [TIRON] | – | – | – | – | – | – | – | 273000 nM | –
11 | O=c1c2ccccc2oc2cc(-c3ccc(O)c(O)c3)c(-c3ccc(O)cc3)cc12 | 220 nM | 890 nM | 7500 nM | 12% | 620 nM | 6800 nM | 0.83 | 31300 nM | –
12 | O=c1c2ccccc2oc2cc(-c3ccc(O)cc3)c(-c3ccccc3)cc12 | 2660 nM | 2000 nM | 53800 nM | – | – | 68800 nM | 2.08 | – | inhibition [17]: inactive; inhibition [6]: inactive; inhibition [10]: 41%
13 | O=c1c2ccccc2oc2cc(-c3ccccc3)c(-c3ccc(O)c(O)c3)cc12 | 400 nM | 540 nM | 15700 nM | 9% | 1880 nM | 6000 nM | 0.76 | 28100 nM | –
14 | O=c1c2ccccc2oc2cc(-c3ccc(O)cc3)c(-c3ccc(O)cc3)cc12 | 1720 nM | 970 nM | 22400 nM | – | 108000 nM | 58400 nM | 2.88 | 166000 nM | inhibition [6]: inactive
15 | O=c1c2ccccc2oc2cc(-c3ccc(O)c(O)c3)c(-c3ccccc3)cc12 | 370 nM | 670 nM | 10800 nM | 9% | 1220 nM | 4500 nM | 0.84 | 76000 nM | –
